How the values were obtained:
Capivasertib = compound: C1CN(CCC1(C(=O)N[C@@H](CCO)C2=CC=C(C=C2)Cl)N)C3=NC=NC4=C3C=CN4 [Capivasertib]
Summary of the method: (§1)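 After 24 hours at 37°C and 5% CO2 in 1536-well plates holding 7.5 μl of DMEM/F12 or RPMI with 10% FBS, cancer cell lines were dosed for 72 hours, with final DMSO typically 0.2%. Viability came from CellTiter-Glo 2.0 luminescence, scaled between the means of blank wells and DMSO wells. A non-linear mixed effects model fitted a two-parameter logistic curve to each dose response to give the single-agent IC50.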

AZD1775 = compound: C=CCn1c(=O)c2cnc(Nc3ccc(N4CCN(C)CC4)cc3)nc2n1-c1cccc(C(C)(C)O)n1 [AZD1775]
Summary of the method: as §1

Trametinib = compound: CC(=O)Nc1cccc(-n2c(=O)n(C3CC3)c(=O)c3c(Nc4ccc(I)cc4F)n(C)c(=O)c(C)c32)c1 [Trametinib]; conditions: max 1 µM
Summary of the method: as §1

Palbociclib = compound: CC(=O)c1c(C)c2cnc(Nc3ccc(N4CCNCC4)cn3)nc2n(C2CCCC2)c1=O [Palbociclib]; conditions: max 10 µM
Summary of the method: as §1

AZD1390 = compound: CC(C)n1c(=O)n(C)c2cnc3cc(F)c(-c4ccc(OCCCN5CCCCC5)nc4)cc3c21 [AZD1390]; conditions: max 0.3 µM
Summary of the method: as §1

Venetoclax = compound: CC1(C)CCC(CN2CCN(c3ccc(C(=O)NS(=O)(=O)c4ccc(NCC5CCOCC5)c([N+](=O)[O-])c4)c(Oc4cnc5[nH]ccc5c4)c3)CC2)=C(c2ccc(Cl)cc2)C1 [Venetoclax]; conditions: max 1 µM
Summary of the method: as §1

Dasatinib = compound: CC1=C(C(=CC=C1)Cl)NC(=O)C2=CN=C(S2)NC3=CC(=NC(=N3)C)N4CCN(CC4)CCO [Dasatinib]; conditions: max 2 µM
Summary of the method: as §1

SG3199 = compound: CC1=CN2[C@@H](C1)C=NC3=CC(=C(C=C3C2=O)OC)OCCCCCOC4=C(C=C5C(=C4)N=C[C@@H]6CC(=CN6C5=O)C)OC [SG3199]; conditions: max 0.001 µM
Summary of the method: as §1

AZD2811 = compound: CCN(CCO)CCCOc1ccc2c(Nc3cc(CC(=O)Nc4cccc(F)c4)[nH]n3)ncnc2c1 [AZD2811]; conditions: max 1 µM
Summary of the method: as §1

SN-38 = compound: CCc1c2c(nc3ccc(O)cc13)-c1cc3c(c(=O)n1C2)COC(=O)[C@]3(O)CC [SN-38]; conditions: max 0.3 µM
Summary of the method: as §1

AZD0156 = compound: CN(C)CCCOc1ccc(-c2ccc3ncc4c(c3c2)n(C2CCOCC2)c(=O)n4C)cn1 [AZD0156]
Summary of the method: as §1

Alisertib = compound: COc1cc(Nc2ncc3c(n2)-c2ccc(Cl)cc2C(c2c(F)cccc2OC)=NC3)ccc1C(=O)O [Alisertib]; conditions: max 10 µM
Summary of the method: as §1

Gefitinib = compound: COc1cc2ncnc(Nc3ccc(F)c(Cl)c3)c2cc1OCCCN1CCOCC1 [Gefitinib]; conditions: max 10 µM
Summary of the method: as §1

Prexasertib = compound: COc1cccc(OCCCN)c1-c1cc(Nc2cnc(C#N)cn2)n[nH]1 [Prexasertib]; conditions: max 1 µM
Summary of the method: as §1

Doxorubicin = compound: COc1cccc2c1C(=O)c1c(O)c3c(c(O)c1C2=O)C[C@@](O)(C(=O)CO)C[C@@H]3O[C@H]1C[C@H](N)[C@H](O)[C@H](C)O1 [Doxorubicin]; conditions: max 1 µM
Summary of the method: as §1

AZD5153 = compound: COc1nnc2ccc(N3CCC(c4ccc(OCCN5CCN(C)C(=O)[C@H]5C)cc4)CC3)nn12 [AZD5153]; conditions: max 1 µM
Summary of the method: as §1

Lapatinib = compound: CS(=O)(=O)CCNCc1ccc(-c2ccc3ncnc(Nc4ccc(OCc5cccc(F)c5)c(Cl)c4)c3c2)o1 [Lapatinib]; conditions: max 10 µM
Summary of the method: as §1

AZD8186 = compound: C[C@@H](Nc1cc(F)cc(F)c1)c1cc(C(=O)N(C)C)cc2c(=O)cc(N3CCOCC3)oc12 [AZD8186]; conditions: max 3 µM
Summary of the method: as §1

Crizotinib = compound: C[C@@H](Oc1cc(-c2cnn(C3CCNCC3)c2)cnc1N)c1c(Cl)ccc(F)c1Cl [Crizotinib]; conditions: max 10 µM
Summary of the method: as §1

Savolitinib = compound: C[C@@H](c1ccc2nccn2c1)n1nnc2ncc(-c3cnn(C)c3)nc21 [Savolitinib]; conditions: max 1 µM
Summary of the method: as §1

AZD6738 = compound: C[C@@H]1COCCN1C2=NC(=NC(=C2)C3(CC3)[S@](=N)(=O)C)C4=C5C=CNC5=NC=C4 [AZD6738]; conditions: max 10 µM
Summary of the method: as §1

AZD5991 = compound: Cc1c2c(nn1C)CSCc1cc(n(C)n1)CSc1cc(c3ccccc3c1)OCCCc1c(C(=O)O)n(C)c3c-2c(Cl)ccc13 [AZD5991]; conditions: max 1 µM
Summary of the method: as §1

AZD7648 = compound: Cc1cc2ncnn2cc1Nc1ncc2c(n1)n(C1CCOCC1)c(=O)n2C [AZD7648]; conditions: max 10 µM
Summary of the method: as §1

Taselisib = compound: Cc1nc(-c2cn3c(n2)-c2ccc(-c4cnn(C(C)(C)C(N)=O)c4)cc2OCC3)n(C(C)C)n1 [Taselisib]; conditions: max 10 µM
Summary of the method: as §1

Selumetinib = compound: Cn1cnc2c(F)c(Nc3ccc(Br)cc3Cl)c(C(=O)NOCCO)cc21 [Selumetinib]
Summary of the method: as §1

Olaparib = compound: O=C(c1cc(Cc2n[nH]c(=O)c3ccccc23)ccc1F)N1CCN(C(=O)C2CC2)CC1 [Olaparib]
Summary of the method: as §1

AZD4320 = compound: CN(CC[C@H](CSC1=CC=CC=C1)NC2=C(C=C(C=C2)S(=O)(=O)NC(=O)C3=CC=C(C=C3)N4CCC(CC4)[C@H](C5=CC=CC=C5C6=CC=C(C=C6)Cl)O)S(=O)(=O)C(F)(F)F)CCO [AZD4320]; conditions: max 1 µM
Summary of the method: as §1

Cell Line | IC50, cell viability 72 h (Capivasertib; max 10 µM) | IC50, cell viability 72 h (AZD1775; max 3 µM) | IC50, cell viability 72 h (Trametinib) | IC50, cell viability 72 h (Palbociclib) | IC50, cell viability 72 h (AZD1390) | IC50, cell viability 72 h (Venetoclax) | IC50, cell viability 72 h (Dasatinib) | IC50, cell viability 72 h (SG3199) | IC50, cell viability 72 h (AZD2811) | IC50, cell viability 72 h (SN-38) | IC50, cell viability 72 h (AZD0156; max 3 µM) | IC50, cell viability 72 h (Alisertib) | IC50, cell viability 72 h (Gefitinib) | IC50, cell viability 72 h (Prexasertib) | IC50, cell viability 72 h (Doxorubicin) | IC50, cell viability 72 h (AZD5153) | IC50, cell viability 72 h (Lapatinib) | IC50, cell viability 72 h (AZD8186) | IC50, cell viability 72 h (Crizotinib) | IC50, cell viability 72 h (Savolitinib) | IC50, cell viability 72 h (AZD6738) | IC50, cell viability 72 h (AZD5991) | IC50, cell viability 72 h (AZD7648) | IC50, cell viability 72 h (Taselisib) | IC50, cell viability 72 h (Selumetinib; max 10 µM) | IC50, cell viability 72 h (Olaparib; max 10 µM) | IC50, cell viability 72 h (AZD4320) | IC50, cell viability 72 h (Capivasertib; max 3 µM) | IC50, cell viability 72 h (Olaparib; max 3 µM) | IC50, cell viability 72 h (AZD1775; max 1 µM) | IC50, cell viability 72 h (AZD0156; max 1 µM) | IC50, cell viability 72 h (Selumetinib; max 3 µM)
GRANTA-519 (B-Cell Non-Hodgkin's Lymphoma) | > 10 µM | 0.55 µM | > 1 µM | > 10 µM | > 0.3 µM | > 1 µM | > 2 µM | > 0.001 µM | > 1 µM | 0.00406 µM | > 3 µM | > 10 µM | > 10 µM | 0.0174 µM | 0.869 µM | > 1 µM | > 10 µM | > 3 µM | > 10 µM | > 1 µM | 1.95 µM | > 1 µM | > 10 µM | > 10 µM | > 10 µM | > 10 µM | – | – | – | – | – | –
HT-3 (Cervical Carcinoma) | > 10 µM | 2.34 µM | > 1 µM | > 10 µM | > 0.3 µM | > 1 µM | > 2 µM | > 0.001 µM | > 1 µM | 0.00856 µM | > 3 µM | > 10 µM | > 10 µM | > 1 µM | 0.732 µM | > 1 µM | > 10 µM | > 3 µM | > 10 µM | > 1 µM | > 10 µM | > 1 µM | > 10 µM | > 10 µM | > 10 µM | > 10 µM | > 1 µM | – | – | – | – | –
M14 (Melanoma) | – | 0.624 µM | – | – | – | – | – | – | – | – | > 3 µM | – | – | – | – | – | – | – | – | – | – | – | – | – | – | – | – | > 3 µM | > 3 µM | – | – | –
NCI-H1048 (Small Cell Lung Carcinoma) | 9.21 µM | 0.798 µM | > 1 µM | > 10 µM | > 0.3 µM | > 1 µM | > 2 µM | > 0.001 µM | 0.323 µM | 0.00299 µM | > 3 µM | 0.497 µM | > 10 µM | 0.132 µM | 0.261 µM | > 1 µM | > 10 µM | > 3 µM | > 10 µM | > 1 µM | > 10 µM | – | > 10 µM | 0.348 µM | > 10 µM | > 10 µM | 0.505 µM | – | – | – | – | –
RVH-421 (Melanoma) | – | – | > 1 µM | – | – | > 1 µM | – | > 0.001 µM | > 1 µM | > 0.3 µM | – | > 10 µM | – | > 1 µM | > 1 µM | – | – | 3 µM | – | – | > 10 µM | > 1 µM | > 10 µM | > 10 µM | – | > 10 µM | > 1 µM | > 3 µM | – | > 1 µM | > 1 µM | > 3 µM
TK (B-Cell Non-Hodgkin's Lymphoma) | > 10 µM | 0.293 µM | > 1 µM | > 10 µM | > 0.3 µM | 0.0462 µM | > 2 µM | > 0.001 µM | > 1 µM | 0.0167 µM | > 3 µM | 2.79 µM | > 10 µM | 0.0108 µM | > 1 µM | > 1 µM | > 10 µM | > 3 µM | > 10 µM | > 1 µM | 1.02 µM | > 1 µM | > 10 µM | > 10 µM | > 10 µM | > 10 µM | – | – | – | – | – | –
